Data set [1] has as its target T1, CYP3A4 (Homo sapiens, UniProt P08684).
T1 construct: containing human liver microsomes (0.1 mg/mL); from tissue; host or cells: human liver microsomes
Put plainly: CYP3A4 inhibition assay. It counts as in vitro ADME. Conditions: human liver microsomes. Here is the method:
In the CYP3A4 inhibition assay, in vitro IC50 of a test compound as direct inhibitor against CYP3A4 is determined, by measuring the inhibition of the turn-over of probe substrates of CYP3A4 (Midazolam and Testosterone) to their specific metabolites i.e., 1′-Hydroxymidazolam, 6β-Hydroxytestosterone, in human liver microsomes.
Examples 2-3 of the present application and example No.37 from WO2015/082533 were tested for CYP3A4 inhibition using two different probes: midazolam and testosterone.
Test compound dissolved in DMSO at selected concentrations was added to a phosphate buffer (50 mM, pH 7.4) containing human liver microsomes (0.1 mg/mL), MgCl (6 mM) and EDTA (0.5 mM) and CYP3A probe substrate, either midazolam (3 μM). Test compound was evaluated at the concentrations 1, 3, 10 and 30 μM and the final DMSO concentration in the incubation was 0.5%. After addition of […] NADPH the mixture was incubated at 37° C. for 10 min (midazolam) or 30 min (testosterone). The reaction was terminated by addition of cold CH3CN containing internal standard, centrifuged and formation of the CYP3A specific metabolite (either 1′-hydroxymidazolam or 6-β-hydroxytestosterone) was quantified by UPLC-MS/MS. The relative CYP3A activity at each test concentration was calculated and IC50 values determined using XLfit.

Data set [2] in a line: Aqueous equilibrated solubility. The class given is physicochemical. Conditions: thermodynamic from solid; aqueous phosphate buffer 50 mM pH 7.4, shaken overnight at RT; pH 7.5 = pH of the solubilized fraction. The procedure:
The studied compound was accurately weighted with a target concentration of 2 mg/mL in an aqueous phosphate buffer (50 mM at pH=7.4). The solution was shaken overnight (rock'n roll shaker) at RT and protected from light (about 24 hrs). The solution was filtered in plate filter device (microplate Millipore “Solvinert” with integrated PTFE filter; 0.45 μm) and the filtrate was dosed by LC/UV method.
The studied compound was accurately weighted with a target concentration of 0.1 mg/mL in DMSO. The solution was sonicated at RT and protected from light. The reference solution was dosed by a LC/UV method and pH of the solubilized fraction was measured.

Data set [3] concerns IL-17A production in anti-CD3/anti-CD28 stimulated peripheral blood mononuclear cells (PBMCs). As to the kind of experiment: Peripheral blood mononuclear cell (PBMC) IL-17 assay. It counts as cell-based. Conditions: 120 h, human PBMCs, 5 days, IL-17A AlphaLISA, average of 11 human donors, read-out: PBMC IL-17 assay pIC50 Average (converted). Here is the method: Examples 2-3 of the present application and example No.37 from WO2015/082533 were tested for their ability to inhibit the IL-17A production in anti-CD3/anti-CD28 stimulated peripheral blood mononuclear cells (PBMCs) isolated from human blood.
This assay is designed to measure the levels of IL-17A secreted from anti-CD3/anti-CD28 stimulated PBMCs with the aim of measuring the inhibition of RORγ mediated IL-17A production.
The assay medium consists of 90% RPMI 1640 (Lonza), 10% heat-inactivated fetal bovine serum (FBS, Lonza) and 100 U/mL penicillin/streptomycin solution.
Anti-CD3 antibody (BD Pharmingen) was diluted to 10 μg/ml in PBS (Lonza). 30 μL of 10 μg/ml anti-CD3 solution was added to the inner 60 wells of a 96-well cell culture treated U-bottom plate (Greiner). Plates were incubated overnight (16-24 hours) at 37° C. and 5% CO2. […]
After incubation, the plates were spun down at 1500 rpm for 4 minutes and the supernatant was collected. Subsequently, the IL-17A levels in the supernatants was determined using an IL-17A AlphaLISA kit (Perkin Elmer) according to the manufacturer's protocol.
The half maximum inhibitory concentration (IC50) values for the test compounds were calculated from the IL-17A signal using GraphPad Prism software (GraphPad Software).

The mark [4] stands for this setting: midazolam probe, read-out: CYP3A4 inhibition Assay IC50, Midazolam probe.
Where [5] appears, read: testosterone probe, read-out: CYP3A4 inhibition Assay IC50, Testosterone probe.

Data on two molecules can be found in patent publication US20190119204A1, “ROR GAMMA (RORy) MODULATORS” (Lead Pharma Holding B.V., priority 2016, published 2019).

Where two headings read alike, the source gives them in different places. A value given as a limit tells only on which side of the number the result lay.

T1 sequence (P08684 whole entry): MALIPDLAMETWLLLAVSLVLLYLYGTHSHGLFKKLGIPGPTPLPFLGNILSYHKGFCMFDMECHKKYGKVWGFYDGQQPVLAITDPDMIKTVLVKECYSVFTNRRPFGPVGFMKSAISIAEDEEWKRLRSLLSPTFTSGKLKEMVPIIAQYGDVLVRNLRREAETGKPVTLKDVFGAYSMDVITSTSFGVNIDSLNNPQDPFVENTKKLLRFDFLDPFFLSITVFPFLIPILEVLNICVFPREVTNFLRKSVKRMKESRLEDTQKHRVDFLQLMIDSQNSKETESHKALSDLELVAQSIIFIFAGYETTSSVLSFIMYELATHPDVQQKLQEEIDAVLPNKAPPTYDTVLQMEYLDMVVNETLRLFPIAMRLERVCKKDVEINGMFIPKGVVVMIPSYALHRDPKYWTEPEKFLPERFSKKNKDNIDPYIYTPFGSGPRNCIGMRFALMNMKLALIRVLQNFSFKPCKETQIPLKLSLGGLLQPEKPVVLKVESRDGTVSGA

With `O=C(Cc1ccc(S(=O)(=O)CC2CC2)cc1)Nc1ccc([C@](O)(C(F)F)C(F)(F)F)cc1` [Example 3, (−)-2-[4-(cyclopropylmethylsulfonyl)phenyl]-N-[4-[(1S)-1-(difluoromethyl)-2,2,2-trifluoro-1-hydroxy-ethyl]phenyl]acetamide], the IC50 was greater than 30 µM in data set [1] (setting [4]), 16 µM in data set [1] (setting [5]) and 0.0251 µM in data set [3]. Besides, the solubility at 24 h in data set [2] is less than 1 µg/mL.
With `O=C(Cc1ccc(S(=O)(=O)CC2CC2)cc1)Nc1ccc([C@@](O)(C(F)F)C(F)(F)F)cc1` [Example 2, (+)-2-[4-(cyclopropylmethylsulfonyl)phenyl]-N-[4-[(1R)-1-(difluoromethyl)-2,2,2-trifluoro-1-hydroxy-ethyl]phenyl]acetamide], the IC50 in data set [1] (setting [4]) was 24 µM; in data set [1] (setting [5]), 13 µM; in data set [3], 0.0631 µM. The solubility at 24 h in data set [2] was less than 1 µg/mL.
